Values of other authors, collected in US12269021B2, “Artificial protein catalyst” (Glytech, Inc., priority 2019, dated 2025).

Assays:
[1] = test system: various cancer cell strains
αvβ3 and αvβ5 integrins = conditions: integrins overexpressed on the cancer cell surface

Compound	cytotoxic activity [1]	integrin inhibition (αvβ3 and αvβ5 integrins)
CC(C)=CCC/C(C)=C/CC/C(C)=C/COc1ccc2ccc(=O)oc2c1 [Umbelliprenin]	cytotoxic activity	
cRGD		inhibits
